In US20120252721A1 (priority 2011, published 2012):

Legend:
[1] = test system: 1a-luc Q30H (HCV genotype 1a replicon); test: Luciferase replicon transient transfection assay, 1a-luc Q30H; type: cell-based, hepatitis C virus
Procedure: (§1) The luciferase replicon transient transfection assay measures the ability of a test compound to inhibit the replication of a transiently-transfected HCV luciferase-bearing wild-type or mutant replicon in cured human hepatoma cells (Huh7.5). The inhibition of HCV replication was measured by quantification of luciferase protein expression. This assay has been validated using a panel of genotype 1a and 1b replicons bearing mutations known to be associated with resistance to BMS-790052. Briefly, subconfluent Huh7.5 cells were electroporated with 10 μg of wild-type or mutant luciferase-bearing HCV replicon RNA. The cells were then seeded in 96-well opaque white plates at 3×10^4 cells/well in 150 μL/well and incubated for 4 hrs at 37° C./5% CO2. Ten 1:5 serial dilutions of each test compound were made in media (DMEM containing glucose, L-glutamine and sodium pyruvate, 10% fetal bovine serum, 100 IU/mL penicillin, 100 μg/mL streptomycin, 2 mM GlutaMAX, and 1×MEM non-essential amino acids (Mediatech, Inc. and Invitrogen Corp.)) at concentrations that were 4× higher than the final concentrations to be tested and 50 μL/well was added to the transfected cells. Untreated, mock-transfected cells served as a negative control of luciferase expression. The plates were incubated at 37° C./5% CO2 for 4 days whereupon the media was removed and 50 μL of ONE-glo luciferase substrate (Promega) was added to each well. The plates were agitated on a rotating platform at room temperature for 3 min and read in a Victor^3V microplate reader (Perkin-Elmer) using a 700 nm cut-off filter with a 1 sec read time. EC50 values were calculated from dose response curves from the resulting best-fit equations determined by Microsoft Excel and XLfit 4.1 software.

[2] = test system: ZS11-luc R30E (HCV genotype 1b replicon); test: Luciferase replicon transient transfection assay, ZS11-luc R30E; type: cell-based, hepatitis C virus
Procedure: as §1

[3] = test system: ZS11-luc L28T (HCV genotype 1b replicon); test: Luciferase replicon transient transfection assay, ZS11-luc L28T; type: cell-based, hepatitis C virus
Procedure: as §1

[4] = test system: 1a-luc M28T (HCV genotype 1a replicon); test: Luciferase replicon transient transfection assay, 1a-luc M28T; type: cell-based, hepatitis C virus
Procedure: as §1

[5] = test system: ZS11-luc L31M (HCV genotype 1b replicon); test: Luciferase replicon transient transfection assay, ZS11-luc L31M; type: cell-based, hepatitis C virus
Procedure: as §1

[6] = test system: ZS11-luc WT (HCV genotype 1b replicon); test: Luciferase replicon transient transfection assay, ZS11-luc WT; type: cell-based, hepatitis C virus; settings: Hepatitis C virus, Huh7.5, 96 h, genotype 1b, ZS11-luc WT, Huh7.5 cells, 4 days
Procedure: as §1

[7] = test system: 1a-luc Y93C (HCV genotype 1a replicon); test: Luciferase replicon transient transfection assay, 1a-luc Y93C; type: cell-based, hepatitis C virus
Procedure: as §1

[8] = test system: 1a-luc Q30R (HCV genotype 1a replicon); test: Luciferase replicon transient transfection assay, 1a-luc Q30R; type: cell-based, hepatitis C virus
Procedure: as §1

[9] = test system: HCV genotype 1a replicon, NS4B E15G; test: Luciferase replicon transient transfection assay, genotype 1a NS4B E15G; type: cell-based, hepatitis C virus
Procedure: as §1
(§2) To determine the replication capacity of each mutant relative to the wild-type parental replicon, transfected cells were plated on two plates and were not treated with compound. Luciferase activity was measured at time points of 4 hrs and 4 days after plating for each replicon. Replication capacity was calculated by dividing the day 4 CPS by the 4 hour CPS for each replicon and determining the percentage present for each mutant replicon relative to wild-type replicon values. The NS3, NS4B, and NS5B mutants were prepared and tested according to the methods described herein.

[10] = test system: HCV genotype 1a replicon, NS5A E295G; test: Luciferase replicon transient transfection assay, genotype 1a NS5A E295G; type: cell-based, hepatitis C virus
Procedure: as §1

[11] = test system: 1a-luc L31V (HCV genotype 1a replicon); test: Luciferase replicon transient transfection assay, 1a-luc L31V; type: cell-based, hepatitis C virus
Procedure: as §1

[12] = test system: 1a-luc L31F (HCV genotype 1a replicon); test: Luciferase replicon transient transfection assay, 1a-luc L31F; type: cell-based, hepatitis C virus
Procedure: as §1

[13] = test system: 1a-luc Q30K (HCV genotype 1a replicon); test: Luciferase replicon transient transfection assay, 1a-luc Q30K; type: cell-based, hepatitis C virus
Procedure: as §1

[14] = test system: 1a-luc WT (HCV genotype 1a replicon); test: Luciferase replicon transient transfection assay, 1a-luc WT; type: cell-based; settings: Hepatitis C virus, 96 h, Huh7.5 cells, 4 days
Procedure: as §1

[15] = test system: 1a-luc P32L (HCV genotype 1a replicon); test: Luciferase replicon transient transfection assay, 1a-luc P32L; type: cell-based, hepatitis C virus
Procedure: as §1

[16] = test system: HCV genotype 1a replicon, NS3 T260A; test: Luciferase replicon transient transfection assay, genotype 1a NS3 T260A; type: cell-based, hepatitis C virus
Procedure: as §1, §2

[17] = test system: HCV genotype 1a replicon, NS5A K24E; test: Luciferase replicon transient transfection assay, genotype 1a NS5A K24E; type: cell-based, hepatitis C virus
Procedure: as §1

[18] = test system: 1a-luc Q30E (HCV genotype 1a replicon); test: Luciferase replicon transient transfection assay, 1a-luc Q30E; type: cell-based, hepatitis C virus
Procedure: as §1

[19] = test system: ZS11-luc Y93N (HCV genotype 1b replicon); test: Luciferase replicon transient transfection assay, ZS11-luc Y93N; type: cell-based, hepatitis C virus
Procedure: as §1

[20] = test system: ZS11-luc L31V (HCV genotype 1b replicon); test: Luciferase replicon transient transfection assay, ZS11-luc L31V; type: cell-based, hepatitis C virus
Procedure: as §1

[21] = test system: ZS11-luc Y93H (HCV genotype 1b replicon); test: Luciferase replicon transient transfection assay, ZS11-luc Y93H; type: cell-based, hepatitis C virus
Procedure: as §1

[22] = test system: ZS11-luc L31F (HCV genotype 1b replicon); test: Luciferase replicon transient transfection assay, ZS11-luc L31F; type: cell-based, hepatitis C virus
Procedure: as §1

[23] = test system: 1a-luc Y93H (HCV genotype 1a replicon); test: Luciferase replicon transient transfection assay, 1a-luc Y93H; type: cell-based, hepatitis C virus
Procedure: as §1

[24] = test system: 1a-luc Y93N (HCV genotype 1a replicon); test: Luciferase replicon transient transfection assay, 1a-luc Y93N; type: cell-based, hepatitis C virus
Procedure: as §1

[25] = test system: ZS11-luc Y93C (HCV genotype 1b replicon); test: Luciferase replicon transient transfection assay, ZS11-luc Y93C; type: cell-based, hepatitis C virus
Procedure: as §1

[26] = test system: 1a-luc L31M (HCV genotype 1a replicon); test: Luciferase replicon transient transfection assay, 1a-luc L31M; type: cell-based, hepatitis C virus
Procedure: as §1

[27] = test system: ZS11-luc P32L (HCV genotype 1b replicon); test: Luciferase replicon transient transfection assay, ZS11-luc P32L; type: cell-based, hepatitis C virus
Procedure: as §1

[28] = Hepatitis C virus, 96 h, Huh7.5 cells, 4 days

What does the source list for COC(=O)N[C@H](C(=O)N1CCC[C@H]1c1nc(-c2ccc(-c3ccc(-c4c[nH]c([C@@H]5CCCN5C(=O)[C@@H](NC(=O)OC)C(C)C)n4)cc3)cc2)c[nH]1)C(C)C [BMS-790052, reference compound]?
Ratio [1]: 155; EC50 [1, 28]: 4 nM; Ratio [2]: 7; EC50 [2, 28]: 0.1 nM; Ratio [3]: 25; EC50 [3, 28]: 0.5 nM; Ratio [4]: 165; EC50 [4, 28]: 4 nM; Ratio [5]: 3; EC50 [5, 28]: 0.06 nM; EC50 [6]: 0.02 nM; Ratio [7]: 287; EC50 [7, 28]: 7 nM; Ratio [8]: 95; EC50 [8, 28]: 2 nM; EC50 ([9]; Hepatitis C virus, HCV region NS4B, mutation E15G): 0.029 nM; Ratio ([9]; NS4B E15G): 1.62; EC50 ([10]; Hepatitis C virus, genotype 1a, HCV region NS5A, mutation E295G): 0.028 nM; Ratio ([10]; {}): 1.56; Ratio [11]: 899; EC50 [11, 28]: 23 nM; Ratio [12]: 43; EC50 [12, 28]: 1 nM; Ratio [13]: 752; EC50 [13, 28]: 19 nM; EC50 [14]: 0.026 nM; Ratio [15]: 142; EC50 [15, 28]: 4 nM; EC50 ([16]; Hepatitis C virus, genotype 1a, HCV region NS3, mutation T260A): 0.031 nM; Ratio ([16]; {}): 1.74; EC50 ([17]; Hepatitis C virus, genotype 1a, HCV region NS5A, mutation K24E): 0.032 nM; Ratio ([17]; {}): 1.78; Ratio [18]: 2935; EC50 [18, 28]: 74 nM; Ratio [19]: 33; EC50 [19, 28]: 0.7 nM; Ratio [20]: 23; EC50 [20, 28]: 0.4 nM; Ratio [21]: 19; EC50 [21, 28]: 0.4 nM; Ratio [22]: 7; EC50 [22, 28]: 0.1 nM; Ratio [23]: 1392; EC50 [23, 28]: 35 nM; Ratio [24]: 7842; EC50 [24, 28]: 192 nM; Ratio [25]: 2; EC50 [25, 28]: 0.04 nM; Ratio [26]: 115; EC50 [26, 28]: 3 nM; Ratio [27]: 9; EC50 [27, 28]: 0.2 nM
